Several values for one entry are separate records, joined by “and”; a condition that tells them apart may be missing. Equal entries are not always repeated.
Columns and labels:
[1] = Respiratory effects, whole body plethysmography; format: in vivo; conditions: plasma; rat, oral; read-out: NOAEL on ventilatory function, total Cmax
Protocol: Effects of single oral doses of AZD0328 on mean, systolic and diastolic arterial blood pressures, heart rate, body temperature, locomotor activity and respiratory parameters were evaluated in rats by combining whole body plethysmography with telemetry (Table 3). […] The degree of hypertension, however, was similar at the 3 highest doses, which partly can be explained by the high individual variation in plasma exposure at each dose level. The effect on heart rate was, on the other hand, dose-related.
Effects of AZD0328 on respiratory function were evaluated in the combined cardiovascular/respiratory study in rats (Table 3). Respiratory rate, tidal volume, inspiratory and expiratory times, and peak inspiratory and expiratory flows were measured […].

Multiple dose PK/TK, dog = format: in vivo; design: AUC/dose: unit not given beside the values
From the text: This section provides a summary of the pharmacokinetic and metabolism properties of AZD0328 derived from in vivo studies. […] The derived PK/TK parameters from these studies are presented in Table 4 for single dose studies (DMR4, 0619LR, 20030191PCR, DMO16, DMB10, DMW12, 50190, 0190DD and 03.330/1), and are presented in Table 5 multiple dose PK/TK studies (DMR4, 0612AR, DMB15, 50190, 0190DD and 0295AD).

[2] = both sexes, dog, in vivo, po, 34.6 mg/kg, dog 2F+2M, 0190DD, 34.6 mg/kg (160 μmol/kg) split in two 6 h apart, capsules fasted, day 1
[3] = both sexes, dog, in vivo, po, 34.6 mg/kg, dog 2F+2M, 0190DD, 34.6 mg/kg (160 μmol/kg) split in two 6 h apart, capsules fasted, day 7
[4] = both sexes, dog, in vivo, po, 34.6 mg/kg, dog 2F+2M, 0190DD, 34.6 mg/kg (160 μmol/kg) split in two 6 h apart, solution fasted, day 1
[5] = both sexes, dog, in vivo, po, 34.6 mg/kg, dog 2F+2M, 0190DD, 34.6 mg/kg (160 μmol/kg) split in two 6 h apart, solution fasted, day 7
[6] = both sexes, dog, in vivo, po, 138 mg/kg, dog 2F+2M, 0190DD, 138 mg/kg (640 μmol/kg) split in two 6 h apart, capsules fed, day 1
[7] = both sexes, dog, in vivo, po, 138 mg/kg, dog 2F+2M, 0190DD, 138 mg/kg (640 μmol/kg) split in two 6 h apart, capsules fed, day 7
[8] = female, Beagle, dog, in vivo, po, 8.65 mg/kg, dog 3F, 0295AD, 8.65 mg/kg (40 μmol/kg) split in two 6 h apart, capsules fed, day 7
[9] = female, Beagle, dog, in vivo, po, 8.65 mg/kg, dog 3F, 0295AD, 8.65 mg/kg (40 μmol/kg) split in two 6 h apart, capsules fed, day 35
[10] = female, Beagle, dog, in vivo, po, 17.3 mg/kg, dog 3F, 0295AD, 17.3 mg/kg (80 μmol/kg) split in two 6 h apart, capsules fed, day 7
[11] = female, Beagle, dog, in vivo, po, 17.3 mg/kg, dog 3F, 0295AD, 17.3 mg/kg (80 μmol/kg) split in two 6 h apart, capsules fed, day 35
[12] = female, Beagle, dog, in vivo, po, 26 mg/kg, dog 6F, 0295AD, 26.0 mg/kg (120 μmol/kg) split into 17.3 and 8.7 mg/kg 6 h apart, capsules fed, day 35
[13] = female, Beagle, dog, in vivo, po, 34.6 mg/kg, dog 6F, 0295AD, 34.6 mg/kg (160 μmol/kg) split in two 6 h apart, capsules fed, day 7

In the case of c1cnc2c(c1)C[C@@]1(CN3CCC1CC3)O2 [AZD0328, (R)-Spiro[1-azabicyclo[2.2.2]octane-3,2′(3′H)-furo[2,3-b]pyridine]], the Cmax [1] is reported as 31.2 µM, the AUC (Multiple dose PK/TK, dog; [2]) is reported as 4430 ng·h/mL and 20.5 µM·h and the Cmax (Multiple dose PK/TK, dog; [2]) is reported as 694 ng/mL and 3.21 µM. The Tmax (Multiple dose PK/TK, dog; [2]) was 1 to 3 h, the AUC (Multiple dose PK/TK, dog; [3]) was 6970 ng·h/mL and 32.2 µM·h and the Cmax (Multiple dose PK/TK, dog; [3]) was 2120 ng/mL and 9.79 µM. The Tmax (Multiple dose PK/TK, dog; [3]) was 1 h, the AUC (Multiple dose PK/TK, dog; [4]) was 4890 ng·h/mL and 22.6 µM·h and the Cmax (Multiple dose PK/TK, dog; [4]) was 1130 ng/mL and 5.2 µM. The Tmax (Multiple dose PK/TK, dog; [4]) was 0.5 h, the AUC (Multiple dose PK/TK, dog; [5]) was 7200 ng·h/mL and 33.3 µM·h and the Cmax (Multiple dose PK/TK, dog; [5]) was 1560 ng/mL and 7.22 µM. For the same compound, the Tmax (Multiple dose PK/TK, dog; [5]) was 0.5 to 1 h, the AUC (Multiple dose PK/TK, dog; [6]) was 11900 ng·h/mL and 55 µM·h and the Cmax (Multiple dose PK/TK, dog; [6]) was 1520 ng/mL and 7.04 µM. For the same compound, the Tmax (Multiple dose PK/TK, dog; [6]) was 1 to 6 h, the AUC (Multiple dose PK/TK, dog; [7]) was 7160 ng·h/mL and 33.1 µM·h and the Cmax (Multiple dose PK/TK, dog; [7]) was 1360 ng/mL and 6.27 µM. For the same compound, the Tmax (Multiple dose PK/TK, dog; [7]) was 0.5 to 6 h, the AUC/dose (Multiple dose PK/TK, dog; dog 2F+2M, 0190DD, 34.6 mg/kg (160 μmol/kg) split in two 6 h apart, capsules fasted, day 1) was 0.128 ± 0.087 and the AUC/dose (Multiple dose PK/TK, dog; dog 2F+2M, 0190DD, 34.6 mg/kg (160 μmol/kg) split in two 6 h apart, solution fasted, day 1) was 0.141 ± 0.014. The AUC/dose (Multiple dose PK/TK, dog; dog 2F+2M, 0190DD, 34.6 mg/kg (160 μmol/kg) split in two 6 h apart, solution fasted, day 7) was 0.208 ± 0.088, the AUC/dose (Multiple dose PK/TK, dog; dog 2F+2M, 0190DD, 138 mg/kg (640 μmol/kg) split in two 6 h apart, capsules fed, day 1) was 0.0859 ± 0.0530 and the AUC/dose (Multiple dose PK/TK, dog; dog 2F+2M, 0190DD, 138 mg/kg (640 μmol/kg) split in two 6 h apart, capsules fed, day 7) was 0.0517 ± 0.0206. For the same compound, the AUC/dose (Multiple dose PK/TK, dog; dog 3F, 0295AD, 8.65 mg/kg (40 μmol/kg) split in two 6 h apart, capsules fed, day 7) was 0.113 ± 0.038, the AUC/dose (Multiple dose PK/TK, dog; dog 3F, 0295AD, 8.65 mg/kg (40 μmol/kg) split in two 6 h apart, capsules fed, day 35) was 0.107 ± 0.017 and the AUC/dose (Multiple dose PK/TK, dog; dog 3F, 0295AD, 17.3 mg/kg (80 μmol/kg) split in two 6 h apart, capsules fed, day 7) was 0.246 ± 0.092. It also gave an AUC/dose (Multiple dose PK/TK, dog; dog 3F, 0295AD, 17.3 mg/kg (80 μmol/kg) split in two 6 h apart, capsules fed, day 35) of 0.233 ± 0.049, an AUC/dose (Multiple dose PK/TK, dog; dog 3M, 0295AD, 8.65 mg/kg (40 μmol/kg) split in two 6 h apart, capsules fed, day 7) of 0.100 ± 0.051 and an AUC/dose (Multiple dose PK/TK, dog; dog 3M, 0295AD, 8.65 mg/kg (40 μmol/kg) split in two 6 h apart, capsules fed, day 35) of 0.145 ± 0.039. The AUC/dose (Multiple dose PK/TK, dog; dog 3M, 0295AD, 17.3 mg/kg (80 μmol/kg) split in two 6 h apart, capsules fed, day 7) was 0.223 ± 0.047, the AUC/dose (Multiple dose PK/TK, dog; dog 3M, 0295AD, 17.3 mg/kg (80 μmol/kg) split in two 6 h apart, capsules fed, day 35) was 0.196 ± 0.008 and the AUC/dose (Multiple dose PK/TK, dog; dog 6F, 0295AD, 26.0 mg/kg (120 μmol/kg) split into 17.3 and 8.7 mg/kg 6 h apart, capsules fed, day 35) was 0.133 ± 0.036. The AUC/dose (Multiple dose PK/TK, dog; dog 6M, 0295AD, 26.0 mg/kg (120 μmol/kg) split into 17.3 and 8.7 mg/kg 6 h apart, capsules fed, day 35) was 0.174 ± 0.029, the AUC/dose (Multiple dose PK/TK, dog; dog 6M, 0295AD, 34.6 mg/kg (160 μmol/kg) split in two 6 h apart, capsules fed, day 7) was 0.152 ± 0.075 and the AUC (Multiple dose PK/TK, dog; [8]) was 981 ng·h/mL and 4.53 µM·h. The Cmax (Multiple dose PK/TK, dog; [8]) was 302 ng/mL and 1.39 µM, the Tmax (Multiple dose PK/TK, dog; [8]) was 1 to 7 h and the AUC (Multiple dose PK/TK, dog; [9]) was 924 ng·h/mL and 4.27 µM·h. The Cmax (Multiple dose PK/TK, dog; [9]) was 270 ng/mL and 1.25 µM, the Tmax (Multiple dose PK/TK, dog; [9]) was 1 to 9 h and the AUC at 7 day (Multiple dose PK/TK, dog; [10]) was 2130 ng·h/mL and 9.83 µM·h. For the same compound, the Cmax at 7 day (Multiple dose PK/TK, dog; [10]) was 850 ng/mL and 3.93 µM, the Tmax at 7 day (Multiple dose PK/TK, dog; [10]) was 0.5 to 6.5 h and the AUC at 35 day (Multiple dose PK/TK, dog; [11]) was 2020 ng·h/mL and 9.33 µM·h. The Cmax at 35 day (Multiple dose PK/TK, dog; [11]) was 439 ng/mL and 2.03 µM, the Tmax at 35 day (Multiple dose PK/TK, dog; [11]) was 1 to 9 h and the AUC (Multiple dose PK/TK, dog; [12]) was 3460 ng·h/mL and 16 µM·h. The Cmax (Multiple dose PK/TK, dog; [12]) was 1190 ng/mL and 5.49 µM, the Tmax (Multiple dose PK/TK, dog; [12]) was 1 to 8.5 h and the AUC (Multiple dose PK/TK, dog; [13]) was 19.2 µM·h. It also gave an AUC at 7 day (Multiple dose PK/TK, dog; [13]) of 4160 ± 1990 ng·h/mL, a Cmax (Multiple dose PK/TK, dog; [13]) of 8.69 µM and a Cmax at 7 day (Multiple dose PK/TK, dog; [13]) of 1880 ± 1060 ng/mL.
